Tests used:
[1] = test system: cisplatin-induced renal injury; assay: Histology (H&E staining) and morphological assessment of renal tissues; format: in vivo, C57BL/6 mice
Experimental: (§1) Six- to eight-weeks old male or female C57BL/6 mice were purchased from the Jackson laboratory. A block randomization method was used to divide these animals into experimental groups. In order to eliminate bias, investigators were blinded during data collection and analysis. The mice were housed under a 12 hour day-night cycle. They were provided with free access to water and food pellets. This animal study was approved by the Kyungpook National University Institutional Animal Care and Use Committee.
(§2) Three days later, kidneys were collected and analyzed.
(§3) Formaldehyde-fixed kidneys were dehydrated using graded alcohol series and paraffinized. Paraffin sections of 5 μm were stained with hematoxylin and eosin (H&E). Each parameter was determined for at least 6 different animals. TUNEL assays were performed using In Situ Cell Detection Kit, Fluorescein (Roche Diagnostic) according to the manufacturer's instructions. A pathologist quantified kidney damage in a double blinded manner using renal damage score, as previously described (See Jiang M et al., Am J Physiol Renal Physiol 287, F1140-1147, 2004). Briefly, tissues were stained with H&E. The degree of morphological involvement in renal dysfunction was determined using light microscopy.
Each parameter was determined for at least five different animals.

[2] = test system: p53-dependent apoptosis pathway; format: in vivo; conditions: renal tissues of cisplatin-treated mice; 50 ug per kg i.p. daily for 3 days
Experimental: as §1, §2
Samples were immunoblotted as previously described (See Santos-Carvalho A et al., Cell Death Dis 4, e636, 2013). Primary antibodies against the following proteins were used: P53(mouse, 1: 1000, Cell Signaling Technologies, 2524), Bax (rabbit, 1: 1000, Cell Signaling Technologies, 2772), Bcl2 (rabbit, 1: 1000, Cell Signaling Technologies, 5114S), and β-actin (1: 1000, Santa Cruz, SC-1615). Densitometric quantification was performed using Image J software (US National Institutes of Health).
Real time RT-PCR was performed as previously described (See Hu L et al., BMB Rep 48, 583-588, 2015). […] Quantitative real-time PCR was performed using Corbett research RG-6000 real-time PCR instrument. […]

[3] = test system: cisplatin-induced apoptosis in the kidney; assay: TUNEL assay of renal apoptosis; format: in vivo, C57BL/6 mice; conditions: cisplatin 15 mg per kg mice; 50 ug per kg i.p. daily for 3 days
Experimental: as §1, §2, §3

[4] = test system: cisplatin-induced renal injury; assay: Creatinine and BUN assays in cisplatin-induced renal injury; format: in vivo, C57BL/6 mice; conditions: cisplatin 15 mg per kg mice; test peptide 50 ug per kg i.p. daily for 3 days; vs cisplatin-treated mice
Experimental: as §1, §2
To monitor renal function, plasma levels of BUN and creatinine were determined using commercially available kits as described previously (See Pabla N et al., J Clin Invest 121, 2709-2722, 2011).

Row | Compound | Apoptotic tubular cells in the renal cortex (H&E) ([1]; cisplatin 15 mg per kg alone) | Expression levels of p53 and pro-apoptotic genes such as Bax, Noxa, and Puma [2] | Apoptotic cells in the kidney (TUNEL assay) [3] | Plasma concentration of blood urea nitrogen (BUN) [4] | Plasma concentration of creatinine [4] | Cisplatin-induced increase in apoptotic tubular cells in the renal cortex (H&E) ([1]; cisplatin 15 mg per kg mice, 50 ug per kg i.p. daily for 3 days) | Renal injury (H&E, tubular damage) ([1]; cisplatin 15 mg per kg mice, 50 ug per kg i.p. daily for 3 days, FIG. 3d)
1 | N.N.[Cl][Pt][Cl] [cisplatin, Cisplatin, reference compound] | increase |  |  |  |  |  | 
2 | Neuropeptide Y [Neuropeptide Y (NPY)] |  | decreased | decrease | decreased | decreased | diminished | 
3 | [Leu31Pro34]NPY [Y1 agonist] |  | suppressed | decreased | reduced | reduced |  | significantly reduced
